Patent publication US7223791B2, “Function regulator for retinoid relative receptor” (Takeda Pharmaceutical Company Limited, priority 2001, dated 2007)

How the values were obtained:
KKA^y mice = assay: Glucose-lowering and lipid-lowering (triglyceride-lowering) actions in mice; format: in vivo; details: test compound 0.01% in powdery diet for four days, non-administration group taken as 100%; for glucose-lowering action (%): reduction percent of blood glucose level; for lipid-lowering action (%): reduction percent of blood triglyceride level
Text: Glucose-Lowering and Lipid-Lowering (Triglyceride-Lowering) Actions in Mice
Test compounds were mixed in a powdery diet (CE-2, Japan Clea) at the proportion of 0.01%, and freely given to KKA^y mice (9 to 12 weeks old, 5 mice per group), a model of obesity-non-insulin dependent diabetes mellitus (type 2 diabetes mellitus), for four days. During this period, water was given freely. Blood was sampled from orbital venous plexus, and glucose and triglyceride levels in plasma separated from the blood were determined enzymatically using L type Wako Glu2 (Wako Pure Chemical Industries, Ltd.) or L type Wako TG-H (Wako Pure Chemical Industries, Ltd.), respectively. The results are given in [Table 1].
In the Table, “glucose-lowering action (%)” represents a reduction percent (%) of the blood glucose level in a test compound administration group when the blood glucose level in a test compound non-administration group is taken as 100%. In addition, “lipid-lowering action (%)” represents a reduction percent (%) of the blood triglyceride level in the test compound administration group when the blood triglyceride level in the test compound non-administration group is taken as 100%.

PPARγ-RXRα heterodimer = biological target: T1, PPARγ-RXRα heterodimer (Homo sapiens, UniProt P19793+P37231); assay: PPARγ-RXRα heterodimer ligand activity (luciferase reporter, PPARγ:RXRα:4ERPP/CHO-K1 cells); format: cell-based; details: 48 hrs, concentration for 50% of the maximum fold induction
T1 construct: 1.4 kb DNA fragment containing PPARγ gene was recovered from the gel; 1.4 kb DNA fragment containing RXRα gene was recovered from the gel; expressed in transfected cells
T1 sequence (P37231 1-477 isoform P37231-2): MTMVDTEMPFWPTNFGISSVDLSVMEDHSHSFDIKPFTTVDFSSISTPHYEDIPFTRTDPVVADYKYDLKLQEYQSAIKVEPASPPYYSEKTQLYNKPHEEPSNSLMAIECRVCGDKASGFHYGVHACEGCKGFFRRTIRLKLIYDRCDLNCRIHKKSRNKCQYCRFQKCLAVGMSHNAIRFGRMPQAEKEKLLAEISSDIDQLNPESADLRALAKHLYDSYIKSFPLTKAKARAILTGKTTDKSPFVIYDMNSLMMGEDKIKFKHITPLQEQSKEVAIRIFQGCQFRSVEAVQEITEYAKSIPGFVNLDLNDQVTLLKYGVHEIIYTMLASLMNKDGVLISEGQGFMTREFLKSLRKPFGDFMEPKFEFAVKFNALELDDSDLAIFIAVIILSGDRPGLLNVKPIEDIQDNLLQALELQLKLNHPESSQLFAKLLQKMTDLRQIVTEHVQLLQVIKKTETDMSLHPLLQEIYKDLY
T1 sequence (P19793 1-462): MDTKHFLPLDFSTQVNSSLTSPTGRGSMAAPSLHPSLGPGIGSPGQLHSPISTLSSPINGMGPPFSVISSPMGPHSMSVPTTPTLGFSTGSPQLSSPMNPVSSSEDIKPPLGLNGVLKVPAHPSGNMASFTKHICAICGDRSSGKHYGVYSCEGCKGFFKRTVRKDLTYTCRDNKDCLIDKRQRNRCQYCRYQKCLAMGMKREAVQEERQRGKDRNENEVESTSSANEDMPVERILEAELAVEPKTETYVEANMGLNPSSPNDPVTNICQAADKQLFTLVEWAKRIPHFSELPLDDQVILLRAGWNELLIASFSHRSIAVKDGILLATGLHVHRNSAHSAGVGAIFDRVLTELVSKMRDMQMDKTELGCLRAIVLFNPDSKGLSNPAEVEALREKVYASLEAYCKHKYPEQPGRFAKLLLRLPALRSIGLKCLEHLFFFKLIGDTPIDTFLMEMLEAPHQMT
Experimental: (PPARγ-RXRα Heterodimer Ligand Activity)
PPARγ: RXRα: 4ERPP/CHO-K1 cells obtained in the following Reference Example 5 were cultured in HAM F12 medium (manufactured by NISSUI SEIYAKU) containing 10% fetal bovine serum [manufactured by Life Technologies, Inc., USA], seeded in a 96-well white plate [manufactured by Corning Coster Corporation, USA] at the density of 2×10^4 cells/well and cultured in a CO2 gas incubator at 37° C. overnight.
After washing the 96-well white plate with PBS (Phosphate-buffered saline), 90 μl of HAM F12 medium containing 0.1% fatty acid-free bovine serum albumin (BSA) and 10 μl of test compound were added, and the cells were cultured in a CO2 gas incubator at 37° C. for 48 hrs. The medium was removed and 40 μl of PicaGene 7.5 (manufactured by Wako Pure Chemical Industries, Ltd.) was added. After stirring, the luciferase activity was determined using Lumistar [manufactured by BMG Labtechnologies GmbH, Germany].
The fold induction was calculated from the luciferase activity of each test compound when the luciferase activity of the test compound non-administration group is taken as 1. The values of the test compound concentration and the fold induction were analyzed using PRISM 2.01 (produced by GraphPad Software Inc. USA) to calculate the EC50 values, the concentration of a test compound for 50% of the maximum fold induction. The results are shown in [Table 2].
Introduction of Human PPARγ- and RXRα-Expression Plasmid and Reporter Plasmid into CHO-K1 Cell as Well as Establishment of Expressed Cell
A CHO-K1 cell cultured in a tissue culture flask (750 ml) [produced by Corning Costar Corporation, USA] containing HAM F12 medium (produced by NISSUI SEIYAKU) supplemented with 10% fetal bovine serum [produced by Life Technologies, Inc., USA] was scraped by treating with 0.5 g/L trypsin-0.2 g/L EDTA (ethylenediamine tetraacetate) [produced by Life Technologies, Inc., USA], and then the cell was washed with PBS (Phosphate-buffered saline)[produced by Life Technologies, Inc., USA], centrifuged (1000 rpm, 5 minutes) and suspended in PBS. Subsequently, DNA was introduced into the cell under the conditions shown below using GENE PULSER (produced by Bio-Rad Laboratories, USA).
Namely, to a cuvette having a 0.4 cm gap were added 8×10^6 cells and 10 μg of plasmid pVgRXR2-hPPARγ obtained in Reference Example 3 and 10 μg of reporter plasmid pGL3-4ERPP-TK neo obtained in Reference Example 4, which was subjected to electroporation at the voltage of 0.25 kV under the capacitance of 960 μF. Subsequently, the cell was transferred into a HAM F12 medium containing 10% fetal bovine serum and cultured for 24 hours, and then the cell was scraped again and centrifuged, and then suspended in HAM F12 medium containing 10% fetal bovine serum supplemented with 500 μg/ml of Geneticin [produced by Life Technologies, Inc., USA] and 250 μg/ml of Zeocin (produced by Invitrogen, USA). The obtained suspension was diluted to the density of 10^4 cells/ml and inoculated in a 96-well plate [produced by Corning Costar Corporation, USA], which was cultured in a CO2 gas incubator at 37° C., whereby obtaining a Geneticin- and Zeocin-resistant transformant.
Subsequently, after the transformant cell line thus obtained was cultured in a 24-well plate [produced by Corning Costar Corporation, USA], a cell line in which the luciferase was expressed and induced, i.e., PPARγ: RXRα: 4ERPP/CHO-K1 cell was selected by the addition of 10 μM pioglitazone hydrochloride.

Row | EC50 (PPARγ-RXRα heterodimer) [nM] | melting point [°C] | SMILES | glucose-lowering action (%) (KKA^y mice) | lipid-lowering action (%) (KKA^y mice)
1 | 22 | 285 to 286 | O=C(O)c1ccc(-c2ccc(-c3ccc(Cl)cc3)s2)cc1 [Example 15, 4-[5-(4-chlorophenyl)-2-thienyl]benzoic acid] | 30 | 54
2 | 3.8 | 270 to 271 | O=C(O)c1ccc(-c2ccc(-c3ccc(C(F)(F)F)cc3)o2)cc1 [Example 10, 4-[5-(4-trifluoromethylphenyl)-2-furyl]benzoic acid] | 37 | 62
3 | – | 218 to 219 | COC(=O)c1ccc(-c2nnc(-c3ccc(C(F)(F)F)cc3)s2)cc1 [Example 58, methyl 4-[5-(4-trifluoromethylphenyl)-1,3,4-thiadiazol-2-yl]benzoate] | 37 | 48
